Test results taken from PMC9166766 (Experimental & Molecular Medicine, 2022).

Test system: Jurkat T cells (PMA and ionomycin-induced gene expression)
Experiment: mRNA sequencing of activated Jurkat T cells
Type: cell-based, human
Conditions: P+I 8 h
Method: We then extracted RNA from these cells. Construction of the cDNA library and next-generation sequencing was performed at LAS (Gimpo, Korea). We sequenced all samples on an Illumina NextSeq 500 system with 75 paired-end reads. For the RNA sequencing analysis, reads for each sample were aligned to the human genome (GRCh37/hg19 genome assembly) using STAR 2.4.0.1[25] with default settings. We used HOMER tools to quantify and normalize the defined genes in RefSeq transcripts. FPKM normalized genes were hierarchically clustered using Cluster3.0[26]. We visualized refined data with Java Treeview (http://jtreeview.sourceforge.net). We conducted gene ontology analysis of each cluster using the DAVID web tool (https://david.ncifcrf.gov). Finally, we visualized the expression levels of target genes using the Integrative Genomics Viewer (http://software.broadinstitute.org/software/igv). The raw data were submitted to the NCBI Gene Expression Omnibus under accession number GSE185561.
Fig. 3 The CABIN1 peptide inhibits T-cell activation. a Heatmap of altered genes affected by FK506 treatment or CABIN1 peptide expression upon T-cell activation. b Gene Ontology analysis of cluster III. c mRNA expression levels of genes included in cluster III. d qRT-PCR data of genes in c. The experiment was independently repeated at least three times, and the data are presented as the mean ± standard deviation. Statistical differences were determined using two-tailed Student’s t-test. *p < 0.05, **p < 0.01, ***p < 0.001, NC negative control.

`C=CC[C@@H]1/C=C(\C)C[C@H](C)C[C@H](OC)[C@H]2O[C@@](O)(C(=O)C(=O)N3CCCC[C@H]3C(=O)O[C@H](/C(C)=C/[C@@H]3CC[C@@H](O)[C@H](OC)C3)[C@H](C)[C@@H](O)CC1=O)[C@H](C)C[C@@H]2OC` [FK506, reference compound] showed an LOC729603 expression (NC 1.468, NC_P+I 5.071) of 2.179 FPKM, a PDGFA expression (NC 1.497, NC_P+I 26.809) of 3.25 FPKM and a PHACTR2 expression (NC 1.659, NC_P+I 9.467) of 2.927 FPKM. The CABP1 expression (NC 1.702, NC_P+I 5.834) was 1.201 FPKM, the POU2AF1 expression (NC 1.84, NC_P+I 36.298) was 2.274 FPKM and the SPRY1 expression (NC 2.079, NC_P+I 12.391) was 4.074 FPKM. The GFOD1 expression (NC 2.283, NC_P+I 12.861) was 4.187 FPKM, the DSTYK expression (NC 2.356, NC_P+I 7.198) was 3.501 FPKM and the FMNL2 expression (NC 2.395, NC_P+I 6.813) was 2.726 FPKM. For the same compound, the ADORA2A expression (NC 2.492, NC_P+I 11.633) was 0.998 FPKM, the CD27 expression (NC 2.525, NC_P+I 27.462) was 3.098 FPKM and the TNFRSF4 expression (NC 2.597, NC_P+I 31.683) was 2.933 FPKM. The REL expression (NC 2.654, NC_P+I 20.219) was 4.749 FPKM, the JAK2 expression (NC 2.788, NC_P+I 26.566) was 5.248 FPKM and the LRRC8B expression (NC 2.89, NC_P+I 28.699) was 3.555 FPKM. For the same compound, the NPDC1 expression (NC 3.008, NC_P+I 8.759) was 4.328 FPKM, the CD27-AS1 expression (NC 3.088, NC_P+I 14.958) was 5.11 FPKM and the CST7 expression (NC 3.315, NC_P+I 14.15) was 2.338 FPKM. It also gave a TAGAP expression (NC 3.351, NC_P+I 128.498) of 4.352 FPKM, a CD55 expression (NC 3.587, NC_P+I 39.451) of 6.015 FPKM and a GTDC1 expression (NC 3.595, NC_P+I 10.378) of 4.629 FPKM. The KCNK5 expression (NC 3.84, NC_P+I 14.865) was 3.906 FPKM, the MYO1D expression (NC 4.114, NC_P+I 11.118) was 4.59 FPKM and the RDH10 expression (NC 4.125, NC_P+I 19.889) was 5.856 FPKM. For the same compound, the COL27A1 expression (NC 4.149, NC_P+I 17.216) was 4.463 FPKM, the PLK3 expression (NC 4.432, NC_P+I 14.807) was 5.257 FPKM and the NFATC1 expression (NC 4.511, NC_P+I 15.287) was 3.793 FPKM. For the same compound, the ASAP1 expression (NC 4.678, NC_P+I 18.37) was 7.765 FPKM, the GRK5 expression (NC 5.451, NC_P+I 21.464) was 8.481 FPKM and the CCDC64 expression (NC 5.477, NC_P+I 33.545) was 10.044 FPKM. For the same compound, the ATG14 expression (NC 5.727, NC_P+I 30.239) was 7.863 FPKM, the PELI1 expression (NC 5.755, NC_P+I 16.085) was 8.175 FPKM and the ARHGEF3 expression (NC 6.146, NC_P+I 31.337) was 8.637 FPKM. For the same compound, the PKIA expression (NC 6.444, NC_P+I 49.019) was 13.962 FPKM, the LTBP4 expression (NC 7.304, NC_P+I 33.466) was 8.427 FPKM and the LAMP3 expression (NC 8.064, NC_P+I 31.61) was 6.412 FPKM. The LAX1 expression (NC 8.344, NC_P+I 24) was 8.052 FPKM, the PTPN22 expression (NC 8.928, NC_P+I 45.38) was 6.37 FPKM and the VAMP1 expression (NC 9.566, NC_P+I 50.97) was 14.793 FPKM. For the same compound, the NINJ1 expression (NC 10.319, NC_P+I 76.622) was 11.769 FPKM, the KCNK1 expression (NC 10.828, NC_P+I 36.893) was 10.967 FPKM and the CD97 expression (NC 10.97, NC_P+I 49.481) was 19.394 FPKM. It also gave an FBXO34 expression (NC 11.735, NC_P+I 48.015) of 14.612 FPKM, a TBC1D20 expression (NC 11.844, NC_P+I 35.808) of 17.7 FPKM and an MIR6775 expression (NC 12.409, NC_P+I 50.527) of 19.643 FPKM. The AGK expression (NC 14.395, NC_P+I 39.056) was 14.029 FPKM, the FYN expression (NC 14.671, NC_P+I 58.084) was 16.523 FPKM and the MIR6821 expression (NC 17.553, NC_P+I 62.894) was 13.626 FPKM. It also gave an NDFIP1 expression (NC 19.638, NC_P+I 54.615) of 22.485 FPKM, a TBC1D4 expression (NC 20.739, NC_P+I 73.749) of 12.549 FPKM and an MAP2K3 expression (NC 21.676, NC_P+I 144.057) of 41.815 FPKM. It also gave a PTPN6 expression (NC 22.163, NC_P+I 77.092) of 20.906 FPKM, an FXYD5 expression (NC 25.643, NC_P+I 101.352) of 41.346 FPKM and a BCL2L1 expression (NC 31.375, NC_P+I 113.956) of 39.402 FPKM. It also gave an ATP6V1B2 expression (NC 33.172, NC_P+I 129.395) of 50.672 FPKM, a PIM3 expression (NC 37.434, NC_P+I 180.382) of 42.827 FPKM and a PPIF expression (NC 58.328, NC_P+I 188.301) of 50.291 FPKM.
